From US20060025419A1, “Imidazoquinoxaline compound for the treatment of melanoma” (priority 2004, published 2006)

Key:
SK-Mel-5 tumors = assay: Melanoma tumor growth in nude mice; assay type: in vivo; settings: 21 days
Procedure: FIGS. 1A-1E. […] After 72 h treatment, cells were photographed. […] 2×10^6 SK-Mel-5 melanoma cells were subcutaneously inoculated into nude mice (n=5 mice per group). […] Tumor size was measured using an electronic digital caliper at intervals of 4 days. Tumor volume was calculated and statistically analyzed.
Animal experimentation was undertaken according to protocols approved by the Institutional of Animal Care and Use Committee at Vanderbilt University. […] Tumor size was measured with an electronic digital caliper. Tumor volume was calculated by width^2×length×0.52 and expressed as mean±SD mm^3.

IKK [1] = molecular target: T1, IKK (Homo sapiens, UniProt O14920+O15111); assay: IKK immunoprecipitation and in vitro kinase assay from treated SK-Mel-5 cells; assay type: cell-based; settings: overnight (14 h) treatment, autoradiography (FIG. 2B)
T1 construct: Equal aliquots of cytoplasmic IKK proteins were immunoprecipitated with anti-IKKα/β antibodies; endogenous in cells; host or cells: SK-Mel-5 human melanoma cells, cytoplasmic extract, immunoprecipitated on Protein A/G agarose beads
Procedure: FIGS. 2A-2D. […] SK-Mel-5 cells were plated in 6-well plates (1.5×10^5 cells per well) and then cotransfected with 1 μg of HIV long terminal repeat NF-κB-luciferase vector and β-galactosidase vector DNA using Lipofectamine Plus reagent. Twenty-four hours after transfection, cells in duplicate plates were treated with 0, 0.1, 1 and 10 μM of BMS-345541in DMSO and incubated for an additional 36 h. Cell extract was prepared and luciferase activity was detected. Luciferase activity was normalized to β-galactosidase activity. […] ATP. The [γ-^32P]-labeled IκBα protein was visualized by autoradiography. […] The supernatants from B were cleared by centrifugation, or (FIG. 2D) sera were collected from mice, and subjected to ELISA assay for CXCL1 according to the manufacture's protocol. Data shown are from a representative data set from two experiments performed in duplicate (total n=4 for each point). For ELISA; the mean value is representative of serum samples from five mice.

SK-Mel-5 cells = assay: Growth of cultured melanoma cells, hemocytometer counting; assay type: cell-based, human
Procedure: FIGS. 1A-1E. […] After 72 h treatment, cells were photographed. […] 2×10^6 SK-Mel-5 melanoma cells were subcutaneously inoculated into nude mice (n=5 mice per group). […] Tumor size was measured using an electronic digital caliper at intervals of 4 days. Tumor volume was calculated and statistically analyzed. Data shown are representative of two independent experiments. […] BMS-345541 levels in serum (μM, left axis) and tumor tissues (nmoles per gram tumor protein, right axes) were determined at the indicated time points.
A super-repressor form of human IκBα (S32, 36A) resistant to degradation and mutant IKKβ (K44M) was kindly provided by Javier Piedrafita (Sidney Kimmel Cancer Center, University of California-San Diego School of Medicine). Antibodies to IKKα (H-744), IKKβ (H-470), Bcl-2, Bax and AIF were purchased from Santa Cruz Biotechnology, Inc. (Santa Cruz, Calif.). Dihydroethidine, 3,3′dihexyloxacarbocyanine iodide and pan-caspase inhibitor (Z-VAD-FMK) were purchased from Molecular Probes (Eugene, Oreg.). N-acetyl-L-cysteine (NAC) and Tiron were from Sigma-Aldrich (St. Louis, Mo.). Normal human epidermal melanocytes (NHEM) were provided by the Skin Disease Research Center in Vanderbilt University School of Medicine. NHEM were cultured in 154 medium with 1× human melanocyte growth supplement (Cascade Biologicals, Inc.). The melanoma cell lines, Sk Mel5, A375 and Hs294T, originally established from human metastatic melanoma, were purchased from American Type Culture Collection and cultured in DMEM: Ham's F-12 medium containing 10% FBS, 2 mM of L-glutamine, 100 μM of MEM Non-Essential Amino Acids (Life Technologies, Inc.), and 1 mM of sodium pyruvate (Sigma Chemical Co.).
Aberrant activation of NF-κB has been associated with carcinogenesis, and constitutively high IKK activity has been detected in many tumor types, including human melanoma (Yang & Richmond, 2001; Liptay et al., 2003; Mathas et al., 2003). IKK is a major regulator of the NF-κB pathway and therefore represents an attractive therapeutic target in advanced cancers. […] After three days of culture, the cell numbers were determined by hemocytometer counting (Table 1).

IKK [2] = molecular target: T1, IKK; assay: Cell-free IKK kinase assay with washing (reversibility); assay type: biochemical; settings: immunopurified IKK, 10 μM, 20 min, washed three times
Procedure: To analyze the IKK activity, cytoplasmic extracts were prepared from cells cultured for 24 h in serum-free medium. Cells were mechanically released from tissue culture plates by scraping in cold PBS according to standard protocols. Cells were collected by centrifugation (800×g), and then resuspended in lysis buffer [10 mM HEPES (pH 7.9), 10 mM KCl, 0.1 mM EDTA, 0.1 mM EGTA, 0.1% NP40, 1 mM DTT, and 0.5 mM phenylmethylsulfonyl fluoride] with Complete Protein Inhibitors (Roche). 400 μg aliquots of cytoplasmic extracts were incubated with 1 μg each of IKKα and IKKβ polyclonal antibodies (Santa Cruz Biotechnology) and 60 μg aliquots of Protein A/G agarose-conjugated beads for 4 h at 4° C. […] The reaction mixtures were resolved by SDS-PAGE, transferred to nitrocellulose membrane, and phosphorylated IκB was detected by autoradiography.
Equal aliquots of cytoplasmic IKK proteins were immunoprecipitated with anti-IKKα/β antibodies and IKK activity was determined in an in vitro kinase assay using recombinant IκBα protein as a substrate for IκB kinase. The IKK activity was determined by autoradiography.

T1 sequence (O14920 whole entry): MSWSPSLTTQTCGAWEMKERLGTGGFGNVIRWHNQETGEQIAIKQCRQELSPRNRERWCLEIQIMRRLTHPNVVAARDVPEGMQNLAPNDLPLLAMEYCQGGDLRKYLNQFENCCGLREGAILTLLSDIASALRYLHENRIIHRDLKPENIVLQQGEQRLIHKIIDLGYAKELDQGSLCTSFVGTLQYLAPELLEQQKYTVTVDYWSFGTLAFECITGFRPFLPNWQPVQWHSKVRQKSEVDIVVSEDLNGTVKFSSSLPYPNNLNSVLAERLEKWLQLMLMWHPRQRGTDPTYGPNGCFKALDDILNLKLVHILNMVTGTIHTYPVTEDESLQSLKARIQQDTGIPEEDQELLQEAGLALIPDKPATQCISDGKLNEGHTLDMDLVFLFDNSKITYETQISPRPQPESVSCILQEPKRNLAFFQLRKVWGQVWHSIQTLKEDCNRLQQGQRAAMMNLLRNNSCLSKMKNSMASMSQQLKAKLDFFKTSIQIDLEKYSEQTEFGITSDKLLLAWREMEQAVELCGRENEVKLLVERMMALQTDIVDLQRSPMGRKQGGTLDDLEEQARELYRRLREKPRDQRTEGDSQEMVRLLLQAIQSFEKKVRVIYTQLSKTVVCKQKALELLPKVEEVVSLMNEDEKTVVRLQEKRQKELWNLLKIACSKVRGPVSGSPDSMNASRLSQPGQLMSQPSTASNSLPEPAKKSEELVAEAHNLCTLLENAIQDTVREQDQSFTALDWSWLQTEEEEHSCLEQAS
T1 sequence (O15111 whole entry): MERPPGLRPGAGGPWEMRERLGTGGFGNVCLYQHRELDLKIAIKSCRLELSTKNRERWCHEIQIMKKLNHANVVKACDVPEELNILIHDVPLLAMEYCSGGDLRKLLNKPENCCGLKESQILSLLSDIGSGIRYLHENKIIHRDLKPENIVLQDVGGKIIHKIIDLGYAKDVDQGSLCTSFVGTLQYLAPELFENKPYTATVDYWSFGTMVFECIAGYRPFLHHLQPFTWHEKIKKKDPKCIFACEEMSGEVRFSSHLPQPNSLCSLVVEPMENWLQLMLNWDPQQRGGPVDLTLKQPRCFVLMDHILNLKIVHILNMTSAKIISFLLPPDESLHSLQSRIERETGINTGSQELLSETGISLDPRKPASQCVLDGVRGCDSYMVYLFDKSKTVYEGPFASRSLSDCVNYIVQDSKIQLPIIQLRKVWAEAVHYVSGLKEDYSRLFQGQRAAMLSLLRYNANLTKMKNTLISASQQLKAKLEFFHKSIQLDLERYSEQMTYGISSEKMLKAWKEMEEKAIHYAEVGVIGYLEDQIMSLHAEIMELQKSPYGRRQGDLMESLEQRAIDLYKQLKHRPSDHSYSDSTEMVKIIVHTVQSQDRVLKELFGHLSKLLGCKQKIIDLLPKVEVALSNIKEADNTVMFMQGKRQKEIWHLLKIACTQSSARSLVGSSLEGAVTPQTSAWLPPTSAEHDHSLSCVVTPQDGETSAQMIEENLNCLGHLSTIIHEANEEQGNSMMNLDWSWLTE
T1 sequence (Q9Y6K9 whole entry partner): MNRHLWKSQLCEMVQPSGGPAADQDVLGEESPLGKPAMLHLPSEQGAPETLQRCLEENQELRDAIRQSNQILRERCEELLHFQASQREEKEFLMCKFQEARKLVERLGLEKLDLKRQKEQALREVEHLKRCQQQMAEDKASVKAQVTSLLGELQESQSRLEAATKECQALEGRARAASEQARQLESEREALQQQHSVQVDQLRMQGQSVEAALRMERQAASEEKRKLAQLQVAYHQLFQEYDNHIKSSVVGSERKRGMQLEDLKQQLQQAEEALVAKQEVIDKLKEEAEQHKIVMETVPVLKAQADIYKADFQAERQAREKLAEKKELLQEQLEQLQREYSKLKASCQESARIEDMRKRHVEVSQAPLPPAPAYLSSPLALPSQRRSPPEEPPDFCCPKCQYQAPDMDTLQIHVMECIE

Cc1ccc2nc(NCCN)c3ncc(C)n3c2c1.Cl [BMS-345541, 4(2′-aminoethyl)amino-1,8-dimethylimidazo(1,2-a)quinoxaline]
SK-Mel-5 tumor growth (FIG. 1B) (SK-Mel-5 tumors; 10, 25 and 75 mg/kg orally once daily): effectively inhibits SK-Mel-5 tumor growth in a dose-dependent manner | inhibition of tumor growth (SK-Mel-5 tumors; SK-Mel-5 tumors, 75 mg/kg orally once daily, vs vehicle): 86±2.8% | IKK activity in SK-Mel-5 melanoma cells (IKK [1]): reduced by BMS-345541 in a concentration-dependent fashion | cell morphology (SK-Mel-5 cells; 10 μM or 100 μM, 14 h (FIG. 1A)): appeared morphologically apoptotic | cell number after three days of culture (SK-Mel-5 cells; Sk-Mel-5, 0.1 μM): 3.7 ± 0.55 10^5 | cell number after three days of culture (SK-Mel-5 cells; Sk-Mel-5, 1.0 μM): 2.7 ± 0.31 10^5 | cell number after three days of culture (SK-Mel-5 cells; Sk-Mel-5, 10 μM): 0.028 ± 0.02 10^5 | cell number after three days of culture (SK-Mel-5 cells; Sk-Mel-5, 100 μM): 0 10^5 | reversibility of IKK inhibition by washing (IKK [2]): reversed after the washing steps
